US6929927B2, “Method of evaluating antifungal agent” (Pola Chemical Industries Inc., priority 2000, dated 2005)
≈ marks a conversion by molar mass, not a printed value.

System: Trichophyton mentagropytes TIMM 2789
Experiment: MIC by microdilution method in 96-well plates, inactivation of agents by lecithin and Tween 80
Assay type: cell-based
Conditions: TIMM2789, 168 h, 7 days
Protocol: MIC (minimum inhibitory concentration) was measured by means of the microdilution method by using 96-well plates to investigate the inactivation of respective agents caused by lecithin and Tween 80. The following four media were used. That is, a Sabouraud liquid medium (SDB) as a base medium, a medium obtained by adding 0.7% Tween 80 to SDB, a medium obtained by adding 1% lecithin to SDB, and a medium obtained by adding 0.7% Tween 80 and 1% lecithin to SDB were used. The following agents were used. That is, lanoconazole, bifonazole, and terbinafine were used. The following test strain was used. That is, Trichophyton mentagropytes TIMM 2789 (available from Institute of Medical Mycology of Teikyo University), which is generally used for the animal infection experiment, was used. The cultivation was performed at 28° C. for 7 days, while the microbial concentration upon the inoculation was about 10^4 conidia/ml. After the cultivation, it was regarded that MIC (μg/ml) was represented by the minimum agent concentration of the plate on which no microbial growth was observed by visual observation.

[1] = Sabouraud liquid medium (SDB), additive none, 28° C.

With `c1ccc(-c2ccc(C(c3ccccc3)n3ccnc3)cc2)cc1` (stereo not drawn) [Bifonazole, bifonazole] the MIC (SDB with 0.7% Tween 80, 28° C.) was > 25 µg/mL, the MIC (SDB with 1% lecithin, 28° C.) was > 25 µg/mL and the MIC [1] was 1.56 µg/mL (≈ 5.03 µM).
`N#C/C(=C1/SCC(c2ccccc2Cl)S1)n1ccnc1` (stereo not drawn) [Lanoconazole, lanoconazole] was tested, and the MIC (SDB with 0.7% Tween 80, 28° C.) was 0.312 µg/mL (≈ 0.975 µM), the MIC (SDB with 1% lecithin, 28° C.) was 0.078 µg/mL (≈ 0.244 µM) and the MIC [1] was ≤ 0.005 µg/mL.
`CN(C/C=C/C#CC(C)(C)C)Cc1cccc2ccccc12` [Terbinafine, terbinafine] was tested, and the MIC (SDB with 0.7% Tween 80, 28° C.) was 0.312 µg/mL (≈ 1.07 µM), the MIC (SDB with 1% lecithin, 28° C.) was 0.078 µg/mL (≈ 0.268 µM) and the MIC [1] was ≤ 0.005 µg/mL.
